Reference: patent US20220298486A1, “UROTHELIAL CELL INDUCTION AGENT AND METHOD FOR INDUCING UROTHELIAL CELLS” (CellAxia Inc, priority 2019, published 2022)

Columns and labels:
Type in all cases: cell-based, human
[1] = system: aHDFs into which F, T, L, and K had been introduced; experiment: examination of medium components (modified Uromedium) for selective proliferation of dUCs; conditions: for influence of concentration of the component on UPK2 mRNA: Uromedium with modified concentration
Protocol: (A) aHDFs into which F, T, L, and K had been introduced were cultured in “Uromedium” medium with modified concentrations of insulin, hydrocortisone, EGF, and IBMX. On Day 21, total RNA was extracted from aHDFs and control aHDFs free of gene introduction, and the gene expression level of UPK2 was measured by real-time RT-PCR. The values shown by mean±SD were normalized by β-actin mRNA expression and shown relative to the value of aHDFs free of gene introduction as 1.0 (N=3). (B) Phase-contrast microscopic images of aHDFs into which F, T, L, and K were introduced, and cultured for 21 days in “Uromedium” medium in which the concentration of hydrocortisone was modified to 0-fold and the concentration of IBMX was modified to 10-fold. Imaging magnification: ×10 (C) Phase-contrast microscopic images of aHDFs into which F, T, L, and K were introduced, and cultured for 21 days in “Uromedium” medium with or without addition of 1 μM tranylcypromine. The bar is 100 μm. (D) Phase-contrast microscopic images of aHDFs into which F, T, L, and K were introduced or not introduced, and cultured for 21 days in “Uromedium” medium or “UCM” medium. The bar is 100 μm.
“Uromedium” medium was produced according to the method of Osborn et al. (Osborn S L, (2014) Stem Cell Transl Med 3(5):610-619.). In summary fashion, the “Uromedium” medium is composed of EpiLife™ medium supplemented with 60 μM calcium (Gibco; MEP1500CA), 60 μg/mL bovine brain hypophysis extract (Gibco), 5 μg/mL human gene recombinant insulin (Diagnocine), 500 ng/mL hydrocortisone (Tokyo Chemical Industry Co., Ltd.), gentamicinamphotericin (Gibco), 2% FBS, 0.1 ng/mL human gene recombinant epidermal growth factor (EGF) (RSD), and 100 μM 3-isobutyl 1-methylxanthine (IBMX) (Sigma-Aldrich).
The “UCM” medium is composed of EpiLife™ medium supplemented with 60 μM calcium, 60 μg/mL bovine brain hypophysis extract, 5 μg/mL human gene recombinant insulin, gentamicinamphotericin, 2% FBS, 0.01 ng/mL human gene recombinant EGF, 1 mM IBMX, and 1 μM tranylcypromine (Abcam).

aHDFs [2] = experiment: real-time RT-PCR of marker mRNA in aHDFs after retroviral gene introduction; conditions: F, T, L, K-introduced aHDFs; plates uncoated or coated with collagen, poly-L-lysine, laminin; day 21
Protocol: (§1) aHDFs were seeded on a laminin-coated 12-well plate or a laminin-uncoated 12-well plate, and the gene was introduced using a retroviral vector. The cells were cultured in CnT-Prime medium or other medium, and 21 days later, observation with a phase contrast microscope, real-time PCR, and analysis of immunocytochemistry were performed. The cells were passaged in fresh culture plates and used for RNA sequencing and penetration assay. In the in vivo experiment, cells into which F, T, L, and K had been introduced were transurethrally transplanted into the injured bladder cavity of an interstitial cystitis mouse through a catheter.
(§2) aHDFs were seeded in 12-well plates coated with atelocollagen (KOKEN; I-PC30), poly-L-lysine (ScienCell), or laminin (Easy iMatrix-511 silk) at a density of 3×10^4 cells/well. After 24 hr, the medium was replaced with the retroviral suspension that was filtrated through a 0.45 μm pore filter (Toyo Roshi Kaisha, Ltd., ADVANTEC) and supplemented with 4 μg/mL polybrene. The next day, the culture supernatant was replaced with Standard Medium free of virus, and replaced with CnT-Prime or “UCM” medium 3 days later. The culture medium was changed every 3 or 4 days.
Total RNA was extracted using RNeasy Mini Kit (Qigen) according to the manufacturer's protocol. […] The relative mRNA expression levels were calculated from the following formula: […]

aHDFs [3] = experiment: epithelial (urothelial) cell colony formation, phase contrast microscope observation; conditions: F, T, L, K-introduced aHDFs; plates uncoated or coated with collagen, poly-L-lysine, laminin; day 21
Protocol: as §1, §2

insulin: human gene recombinant insulin
influence of concentration of the component on UPK2 mRNA ([1]; day 21): not definitive

laminin
expression of UPK1b and UPK2 mRNAs by plate coating (aHDFs [2]): the highest | epithelial cell colony formation by plate coating (aHDFs [3]): formed only in laminin-coated plates

N[C@@H]1C[C@H]1c1ccccc1 (racemic) [tranylcypromine]
formation of urothelial cell colonies ([1]; Uromedium with addition of 1 μM tranylcypromine, 21 days): enhanced

CC(C)Cn1c(=O)n(C)c(=O)c2[nH]cnc21 [IBMX, 3-isobutyl 1-methylxanthine]
expression of UPK2 mRNA ([1]; 1-10 mM IBMX in Uromedium, day 21): played a beneficial role | epithelial cell colony formation ([1]; medium containing 10 mM IBMX, 21 days): form epithelial cell colonies

EGF: human gene recombinant epidermal growth factor
mRNA expression of UPK2 ([1]; addition of 0.01-1 ng/mL EGF, day 21): increased

C[C@]12CCC(=O)C=C1CC[C@@H]1[C@@H]2[C@@H](O)C[C@@]2(C)[C@H]1CC[C@]2(O)C(=O)CO [hydrocortisone]
influence of concentration of the component on UPK2 mRNA ([1]; day 21): not definitive
